Assay results: US20240209001A1, “HETEROCYCLIC DERIVATIVES AS JANUS KINASE INHIBITORS” (CHIESI FARMACEUTICI S.P. A., priority 2021, published 2024)

Assays:
[1] = molecular target: JAK 1 (Homo sapiens (Human), UniProt P23458); assay: Biochemical potency on JAK1, TR-FRET LANCE Ultra kinase assay (compounds 1-92); details: ATP at Km, read-out: JAK1 inhibitory activity (pIC50 class) (converted)
Outline: (§1)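 TR-FRET (LANCE Ultra) phosphorylation of ULight-JAK-1 peptide, ATP at Km: JAK1/JAK2/JAK3/TYK2 peptide 30/50/20/10 nM, ATP 20/0.7/0.2/12 μM, enzyme 0.15/0.083/0.025/0.144 ng/μL. 11-point 5-fold series from 20 μM; 1.5 h RT, EDTA stop, Eu-anti-pTyr detection 1 h; IC50 by variable-slope fit.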

[2] = molecular target: JAK 2 (Homo sapiens (Human), UniProt O60674); assay: Biochemical potency on JAK2, TR-FRET LANCE Ultra kinase assay (compounds 1-92); details: ATP at Km, read-out: JAK2 inhibitory activity (pIC50 class) (converted)
Chain of JAK 2 (O60674 whole entry): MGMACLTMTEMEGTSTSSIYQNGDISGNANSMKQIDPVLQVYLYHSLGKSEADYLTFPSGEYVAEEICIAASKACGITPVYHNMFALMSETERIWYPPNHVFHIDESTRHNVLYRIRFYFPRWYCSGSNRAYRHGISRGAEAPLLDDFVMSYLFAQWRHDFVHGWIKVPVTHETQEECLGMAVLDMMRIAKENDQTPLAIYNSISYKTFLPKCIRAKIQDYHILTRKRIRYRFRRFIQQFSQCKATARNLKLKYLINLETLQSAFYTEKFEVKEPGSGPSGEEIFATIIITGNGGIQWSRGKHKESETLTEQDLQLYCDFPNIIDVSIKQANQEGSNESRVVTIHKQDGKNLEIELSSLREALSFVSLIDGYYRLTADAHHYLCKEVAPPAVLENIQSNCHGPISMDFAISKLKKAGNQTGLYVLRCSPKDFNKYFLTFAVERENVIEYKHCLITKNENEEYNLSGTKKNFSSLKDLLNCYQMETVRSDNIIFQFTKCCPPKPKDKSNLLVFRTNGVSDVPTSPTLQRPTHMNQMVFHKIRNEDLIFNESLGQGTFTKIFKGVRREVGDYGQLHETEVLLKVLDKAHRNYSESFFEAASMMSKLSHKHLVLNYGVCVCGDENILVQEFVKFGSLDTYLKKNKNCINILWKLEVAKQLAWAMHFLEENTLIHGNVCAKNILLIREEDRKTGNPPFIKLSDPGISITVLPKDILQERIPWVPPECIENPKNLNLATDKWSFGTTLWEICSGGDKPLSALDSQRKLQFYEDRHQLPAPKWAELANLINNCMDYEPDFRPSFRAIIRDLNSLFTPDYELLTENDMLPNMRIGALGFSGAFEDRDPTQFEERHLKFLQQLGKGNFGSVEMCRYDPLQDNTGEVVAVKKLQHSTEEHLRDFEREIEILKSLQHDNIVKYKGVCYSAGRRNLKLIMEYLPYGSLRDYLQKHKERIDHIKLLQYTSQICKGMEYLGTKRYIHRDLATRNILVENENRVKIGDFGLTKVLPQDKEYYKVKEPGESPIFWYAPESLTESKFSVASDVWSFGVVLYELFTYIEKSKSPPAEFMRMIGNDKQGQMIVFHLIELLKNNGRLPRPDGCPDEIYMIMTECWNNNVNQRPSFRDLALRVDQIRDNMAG
Outline: as §1

[3] = molecular target: JAK 3 (Homo sapiens (Human), UniProt P52333); assay: Biochemical potency on JAK3, TR-FRET LANCE Ultra kinase assay (compounds 1-92); details: ATP at Km, read-out: JAK3 inhibitory activity (pIC50 class) (converted)
Chain of JAK 3 (P52333 whole entry): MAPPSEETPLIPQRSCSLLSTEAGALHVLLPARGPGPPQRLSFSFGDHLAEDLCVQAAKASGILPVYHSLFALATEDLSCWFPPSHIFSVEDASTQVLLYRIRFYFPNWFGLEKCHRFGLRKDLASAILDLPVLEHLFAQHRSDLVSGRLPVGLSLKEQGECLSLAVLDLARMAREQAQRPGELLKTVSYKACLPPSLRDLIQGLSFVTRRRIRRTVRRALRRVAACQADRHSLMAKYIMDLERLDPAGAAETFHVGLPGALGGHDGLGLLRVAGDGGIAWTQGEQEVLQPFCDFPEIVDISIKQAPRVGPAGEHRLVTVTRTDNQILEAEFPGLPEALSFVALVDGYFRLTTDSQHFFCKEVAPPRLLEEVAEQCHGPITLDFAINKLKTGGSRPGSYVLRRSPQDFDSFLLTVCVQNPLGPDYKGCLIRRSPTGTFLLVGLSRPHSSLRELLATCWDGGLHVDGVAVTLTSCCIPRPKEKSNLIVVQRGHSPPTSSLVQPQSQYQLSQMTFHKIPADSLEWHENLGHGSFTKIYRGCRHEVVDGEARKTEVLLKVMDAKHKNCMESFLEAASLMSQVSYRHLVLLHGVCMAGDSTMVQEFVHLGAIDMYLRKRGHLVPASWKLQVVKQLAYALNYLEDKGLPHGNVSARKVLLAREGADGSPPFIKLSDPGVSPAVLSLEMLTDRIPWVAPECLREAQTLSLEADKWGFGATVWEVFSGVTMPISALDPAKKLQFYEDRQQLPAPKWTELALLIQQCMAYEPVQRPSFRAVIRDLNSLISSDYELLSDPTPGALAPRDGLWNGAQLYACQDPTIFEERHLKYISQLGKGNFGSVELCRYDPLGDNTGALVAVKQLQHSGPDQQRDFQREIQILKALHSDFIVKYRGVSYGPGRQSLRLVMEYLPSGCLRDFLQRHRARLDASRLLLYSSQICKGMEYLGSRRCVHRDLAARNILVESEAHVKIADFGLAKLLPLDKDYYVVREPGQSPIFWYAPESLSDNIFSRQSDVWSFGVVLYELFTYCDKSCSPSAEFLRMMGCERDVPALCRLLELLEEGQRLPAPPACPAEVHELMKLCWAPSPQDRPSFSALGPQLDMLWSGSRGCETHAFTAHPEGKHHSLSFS
Outline: as §1

[4] = molecular target: TYK2 (Homo sapiens (Human), UniProt P29597); assay: Biochemical potency on Tyk2, TR-FRET LANCE Ultra kinase assay (compounds 1-92); details: ATP at Km, read-out: Tyk2 inhibitory activity (pIC50 class) (converted)
Chain of TYK2 (P29597 whole entry): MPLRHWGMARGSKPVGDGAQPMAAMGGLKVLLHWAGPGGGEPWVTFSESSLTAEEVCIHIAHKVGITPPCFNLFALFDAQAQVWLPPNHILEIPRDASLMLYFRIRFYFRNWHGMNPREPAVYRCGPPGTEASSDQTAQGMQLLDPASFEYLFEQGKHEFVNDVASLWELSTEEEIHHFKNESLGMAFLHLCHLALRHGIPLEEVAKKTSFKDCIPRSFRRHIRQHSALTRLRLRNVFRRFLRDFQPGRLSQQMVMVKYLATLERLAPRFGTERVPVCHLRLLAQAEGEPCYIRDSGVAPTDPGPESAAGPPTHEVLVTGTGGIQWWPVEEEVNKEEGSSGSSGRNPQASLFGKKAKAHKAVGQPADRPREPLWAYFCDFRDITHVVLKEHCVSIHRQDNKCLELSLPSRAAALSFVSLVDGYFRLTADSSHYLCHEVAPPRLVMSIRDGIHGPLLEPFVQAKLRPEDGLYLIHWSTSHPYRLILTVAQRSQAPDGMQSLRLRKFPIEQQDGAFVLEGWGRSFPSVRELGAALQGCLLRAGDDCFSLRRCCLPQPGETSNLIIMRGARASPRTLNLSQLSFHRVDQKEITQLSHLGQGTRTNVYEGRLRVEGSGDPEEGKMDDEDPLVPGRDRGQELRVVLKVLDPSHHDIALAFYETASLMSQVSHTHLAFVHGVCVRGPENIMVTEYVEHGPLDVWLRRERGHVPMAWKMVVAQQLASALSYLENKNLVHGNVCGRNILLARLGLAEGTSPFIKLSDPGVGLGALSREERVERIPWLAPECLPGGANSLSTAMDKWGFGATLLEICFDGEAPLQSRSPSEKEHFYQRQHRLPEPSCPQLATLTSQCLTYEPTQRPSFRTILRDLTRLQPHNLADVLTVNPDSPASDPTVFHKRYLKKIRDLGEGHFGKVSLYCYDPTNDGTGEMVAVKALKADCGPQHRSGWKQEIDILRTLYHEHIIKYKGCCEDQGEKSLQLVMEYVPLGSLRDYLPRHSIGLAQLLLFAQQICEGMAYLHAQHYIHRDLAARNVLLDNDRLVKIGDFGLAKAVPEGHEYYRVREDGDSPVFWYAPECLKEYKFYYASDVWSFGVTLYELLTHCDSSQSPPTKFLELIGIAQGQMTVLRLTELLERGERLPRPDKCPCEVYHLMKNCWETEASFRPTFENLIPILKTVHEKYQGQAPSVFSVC
Outline: as §1

Chain of JAK 1 (P23458 whole entry): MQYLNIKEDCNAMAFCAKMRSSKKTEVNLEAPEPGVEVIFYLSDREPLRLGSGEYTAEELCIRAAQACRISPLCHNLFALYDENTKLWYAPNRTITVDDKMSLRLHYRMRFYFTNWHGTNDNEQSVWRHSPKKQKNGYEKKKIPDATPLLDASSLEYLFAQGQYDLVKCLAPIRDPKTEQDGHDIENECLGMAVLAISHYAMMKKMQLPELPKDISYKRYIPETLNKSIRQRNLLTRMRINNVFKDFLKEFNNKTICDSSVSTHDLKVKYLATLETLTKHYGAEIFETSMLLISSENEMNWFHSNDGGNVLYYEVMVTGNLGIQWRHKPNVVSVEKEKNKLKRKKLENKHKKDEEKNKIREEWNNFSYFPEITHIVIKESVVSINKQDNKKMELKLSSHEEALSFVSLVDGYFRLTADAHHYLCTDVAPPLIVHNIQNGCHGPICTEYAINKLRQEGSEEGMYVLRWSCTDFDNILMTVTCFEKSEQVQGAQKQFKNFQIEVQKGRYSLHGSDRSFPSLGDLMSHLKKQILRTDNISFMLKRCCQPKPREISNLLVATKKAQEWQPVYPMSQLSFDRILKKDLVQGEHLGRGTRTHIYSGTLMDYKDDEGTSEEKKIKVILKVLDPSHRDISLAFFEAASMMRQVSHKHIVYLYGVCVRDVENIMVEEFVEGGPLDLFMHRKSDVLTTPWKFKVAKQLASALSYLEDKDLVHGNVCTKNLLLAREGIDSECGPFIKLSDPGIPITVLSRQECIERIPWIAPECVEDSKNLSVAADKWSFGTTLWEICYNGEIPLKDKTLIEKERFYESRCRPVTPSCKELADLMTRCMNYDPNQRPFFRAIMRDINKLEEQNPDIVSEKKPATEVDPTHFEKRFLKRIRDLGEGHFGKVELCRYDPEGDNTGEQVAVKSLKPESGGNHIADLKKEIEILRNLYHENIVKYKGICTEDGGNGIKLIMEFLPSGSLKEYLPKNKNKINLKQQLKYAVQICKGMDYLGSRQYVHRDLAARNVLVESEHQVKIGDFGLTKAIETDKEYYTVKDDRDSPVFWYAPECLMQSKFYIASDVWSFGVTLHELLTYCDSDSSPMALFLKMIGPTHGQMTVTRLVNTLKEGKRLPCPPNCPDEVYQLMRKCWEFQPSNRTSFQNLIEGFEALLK

Q: What does the source list for `COc1cc(NS(C)(=O)=O)ccc1-n1nc(NCCCN(C)C)c2cnc(-c3cnn4cccnc34)cc21` [Example 22, N-(4-(3-((3-(dimethylamino)propyl)amino)-6-(pyrazolo[1,5-a]pyrimidin-3-yl)-1H-pyrazolo[4,3-c]pyridin-1-yl)-3-methoxyphenyl)methanesulfonamide]?
A: IC50 [1]: ≤ 5.01 nM; IC50 [2]: ≤ 5.01 nM; IC50 [3]: ≤ 5.01 nM; IC50 [4]: 5.01 to 50.1 nM

Q: What does the source list for `COc1cc(NS(C)(=O)=O)ccc1-n1nc(NCC2CN(C)CCO2)c2cnc(-c3cnn4cccnc34)cc21` (racemic) [Example 28, N-(3-methoxy-4-(3-(((4-methylmorpholin-2-yl)methyl)amino)-6-(pyrazolo[1,5-a]pyrimidin-3-yl)-1H-pyrazolo[4,3-c]pyridin-1-yl)phenyl)methanesulfonamide]?
A: IC50 [1]: ≤ 5.01 nM; IC50 [2]: ≤ 5.01 nM; IC50 [3]: ≤ 5.01 nM; IC50 [4]: 5.01 to 50.1 nM

Q: With `COc1cc(NS(C)(=O)=O)ccc1-n1nc(C)c2cnc(Nc3ncc[nH]c3=O)cc21` [Example 85, N-(3-methoxy-4-(3-methyl-6-((3-oxo-3,4-dihydropyrazin-2-yl)amino)-1H-pyrazolo[4,3-c]pyridin-1-yl)phenyl)methanesulfonamide] as the compound, how does the IC50 [1] read?
A: ≤ 5.01 nM

Q: And the IC50 [2]?
A: ≤ 5.01 nM

Q: And the IC50 [3]?
A: ≤ 5.01 nM

Q: And the IC50 [4]?
A: ≤ 5.01 nM

Q: For `CCCS(=O)(=O)Nc1ccc(-n2nc(C)c3cnc(-c4cnn5cccnc45)cc32)c(OC)c1` [Example 4, N-(3-methoxy-4-(3-methyl-6-(pyrazolo[1,5-a]pyrimidin-3-yl)-1H-pyrazolo[4,3-c]pyridin-1-yl)phenyl)propane-1-sulfonamide], which IC50 [1] is on record?
A: ≤ 5.01 nM

Q: And the IC50 [2]?
A: ≤ 5.01 nM

Q: What about the IC50 [3] of the same compound?
A: ≤ 5.01 nM

Q: What about the IC50 [4] of the same compound?
A: 5.01 to 50.1 nM

Q: With `COc1cc(NS(C)(=O)=O)ccc1-n1nc(NCCN2C3CCC2COC3)c2cnc(Nc3ncc[nH]c3=O)cc21` [Example 90, N-(4-(3-((2-(3-oxa-8-azabicyclo[3.2.1]octan-8-yl)ethyl)amino)-6-((3-oxo-3,4-dihydropyrazin-2-yl)amino)-1H-pyrazolo[4,3-c]pyridin-1-yl)-3-methoxyphenyl)methanesulfonamide] as the compound, how does the IC50 [1] read?
A: ≤ 5.01 nM

Q: What about the IC50 [2] of the same compound?
A: ≤ 5.01 nM

Q: What about the IC50 [3] of the same compound?
A: ≤ 5.01 nM

Q: And the IC50 [4]?
A: ≤ 5.01 nM

Q: Which IC50 [1] does the source give for `CNc1nn(-c2cc(Cl)c(CNS(C)(=O)=O)cc2OC)c2cc(-c3cnn4cccnc34)ncc12` [Example 57, N-(2-chloro-5-methoxy-4-(3-(methylamino)-6-(pyrazolo[1,5-a]pyrimidin-3-yl)-1H-pyrazolo[4,3-c]pyridin-1-yl)benzyl)methanesulfonamide] here?
A: ≤ 5.01 nM

Q: And the IC50 [2]?
A: ≤ 5.01 nM

Q: What about the IC50 [3] of the same compound?
A: ≤ 5.01 nM

Q: And the IC50 [4]?
A: 5.01 to 50.1 nM

Q: Which results are given for `CCCS(=O)(=O)Nc1ccc(-n2nc(CNC)c3cnc(-c4cnn5cccnc45)cc32)c(OC)c1` [Example 83, N-(3-methoxy-4-(3-((methylamino)methyl)-6-(pyrazolo[1,5-a]pyrimidin-3-yl)-1H-pyrazolo[4,3-c]pyridin-1-yl)phenyl)propane-1-sulfonamide]?
A: IC50 [1]: ≤ 5.01 nM; IC50 [2]: ≤ 5.01 nM; IC50 [3]: ≤ 5.01 nM; IC50 [4]: 5.01 to 50.1 nM

Q: What does the source list for `COc1cc(C(=O)Nc2ccccc2)ccc1-n1nc(C)c2cnc(-c3cnn4cccnc34)cc21` [Example 20, 3-methoxy-4-(3-methyl-6-(pyrazolo[1,5-a]pyrimidin-3-yl)-1H-pyrazolo[4,3-c]pyridin-1-yl)-N-phenylbenzamide]?
A: IC50 [1]: 5.01 to 50.1 nM; IC50 [2]: 5.01 to 50.1 nM; IC50 [3]: 5.01 to 50.1 nM; IC50 [4]: > 50.1 nM

Q: `COc1cc(CNS(=O)(=O)C2CC2)ccc1-n1nc(C)c2cnc(-c3cnn4cccnc34)cc21` [Example 64, N-(3-methoxy-4-(3-methyl-6-(pyrazolo[1,5-a]pyrimidin-3-yl)-1H-pyrazolo[4,3-c]pyridin-1-yl)benzyl)cyclopropanesulfonamide] was tested. Which IC50 [1] did it give?
A: ≤ 5.01 nM

Q: And the IC50 [2]?
A: ≤ 5.01 nM

Q: What about the IC50 [3] of the same compound?
A: ≤ 5.01 nM

Q: And the IC50 [4]?
A: 5.01 to 50.1 nM

Q: What does the source list for `COc1cc(NS(C)(=O)=O)ccc1-n1nc(C(=O)NCCN2CCOCC2)c2cnc(-c3cnn4cccnc34)cc21` [Example 45, 1-(2-methoxy-4-(methylsulfonamido)phenyl)-N-(2-morpholinoethyl)-6-(pyrazolo[1,5-a]pyrimidin-3-yl)-1H-pyrazolo[4,3-c]pyridine-3-carboxamide]?
A: IC50 [1]: ≤ 5.01 nM; IC50 [2]: ≤ 5.01 nM; IC50 [3]: ≤ 5.01 nM; IC50 [4]: 5.01 to 50.1 nM

Q: For `CNc1nn(-c2ccc(NS(C)(=O)=O)cc2OC)c2cc(-c3cnn4cccnc34)ncc12` [Example 23, N-(3-methoxy-4-(3-(methylamino)-6-(pyrazolo[1,5-a]pyrimidin-3-yl)-1H-pyrazolo[4,3-c]pyridin-1-yl)phenyl)methanesulfonamide], which IC50 [1] is on record?
A: ≤ 5.01 nM

Q: And the IC50 [2]?
A: ≤ 5.01 nM

Q: And the IC50 [3]?
A: ≤ 5.01 nM

Q: And the IC50 [4]?
A: 5.01 to 50.1 nM

Q: With `COc1cc(CO)ccc1-n1nc(C)c2cnc(-c3cnn4cccnc34)cc21` [Example 66, (3-methoxy-4-(3-methyl-6-(pyrazolo[1,5-a]pyrimidin-3-yl)-1H-pyrazolo[4,3-c]pyridin-1-yl)phenyl)methanol] as the compound, how does the IC50 [1] read?
A: 5.01 to 50.1 nM

Q: What about the IC50 [2] of the same compound?
A: 5.01 to 50.1 nM

Q: What about the IC50 [3] of the same compound?
A: 5.01 to 50.1 nM

Q: What about the IC50 [4] of the same compound?
A: > 50.1 nM

Q: Which results are given for `COc1cc(CN)ccc1-n1nc(C)c2cnc(-c3cnn4cccnc34)cc21` [Example 67, (3-methoxy-4-(3-methyl-6-(pyrazolo[1,5-a]pyrimidin-3-yl)-1H-pyrazolo[4,3-c]pyridin-1-yl)phenyl)methanamine]?
A: IC50 [1]: > 50.1 nM; IC50 [2]: > 50.1 nM; IC50 [3]: > 50.1 nM; IC50 [4]: > 50.1 nM

Q: For `COCCN1CCC(CNc2nn(-c3ccc(NS(C)(=O)=O)cc3OC)c3cc(-c4cnn5cccnc45)ncc23)CC1` [Example 27, N-(3-methoxy-4-(3-(((1-(2-methoxyethyl)piperidin-4-yl)methyl)amino)-6-(pyrazolo[1,5-a]pyrimidin-3-yl)-1H-pyrazolo[4,3-c]pyridin-1-yl)phenyl)methanesulfonamide], which IC50 [1] is on record?
A: ≤ 5.01 nM

Q: And the IC50 [2]?
A: ≤ 5.01 nM

Q: And the IC50 [3]?
A: ≤ 5.01 nM

Q: What about the IC50 [4] of the same compound?
A: 5.01 to 50.1 nM

Q: Which results are given for `COC(=O)NCc1ccc(-n2nc(C)c3cnc(-c4cnn5cccnc45)cc32)c(OC)c1` [Example 69, methyl (3-methoxy-4-(3-methyl-6-(pyrazolo[1,5-a]pyrimidin-3-yl)-1H-pyrazolo[4,3-c]pyridin-1-yl)benzyl)carbamate]?
A: IC50 [1]: > 50.1 nM; IC50 [2]: 5.01 to 50.1 nM; IC50 [3]: 5.01 to 50.1 nM; IC50 [4]: > 50.1 nM

Q: What does the source list for `COc1cc(NS(=O)(=O)C2CC2)ccc1-n1nc(N[C@H]2C[C@@H](N(C)C)C2)c2cnc(-c3cnn4cccnc34)cc21` [Example 78, N-(4-(3-(((1s,3s)-3-(dimethylamino)cyclobutyl)amino)-6-(pyrazolo[1,5-a]pyrimidin-3-yl)-1H-pyrazolo[4,3-c]pyridin-1-yl)-3-methoxyphenyl)cyclopropanesulfonamide]?
A: IC50 [1]: ≤ 5.01 nM; IC50 [2]: ≤ 5.01 nM; IC50 [3]: ≤ 5.01 nM; IC50 [4]: 5.01 to 50.1 nM
